Measurements from US10265297B2 (Council of Scientific & Industrial Research, priority 2016, dated 2019).
Marks after values point to notes of the source that are not given here.

Assays:
[1] = tested on: ovariectomized Sprague Dawley rats; assay: Ovariectomized (OVx) rats: trabecular microarchitecture of femur and uterine weight; assay type: in vivo; conditions: for BV/TV / Po (tot) (Total porosity percent) / SMI / Tb.No / Tb.Pf (Trabecular pattern factor) / Tb.Sp: femur epiphysis
Description: The study was conducted in accordance with current legislation on animal experiments [Institutional Animal Ethical Committee (IAEC)] at C.D.R.I. […] Sprague Dawley rats weighing ˜180-200 gm were either bilaterally ovariectomized (OVx) or exposed to a sham surgical procedure. All rats were individually housed at 21° C., in 12-h light:12-h dark cycles. All rats had excess to normal chow diet and water ad libitum. After OVx, the rats were left for 12 weeks to develop osteopenia. After 12 weeks, extract treatment in the form of gavage (50.0 mg and 100 mg/kg body weight), and iPTH 30 μg·kg^−1 three times a week was given daily. Equal numbers of OVx and sham operated rats served as the control, and were given vehicle (20% ethanol). The rats were weighed each week. At the end of 12 weeks, urine was to be collected for biochemical assessment therefore the rats were caged individually in plastic cages fitted with steel mesh for a total period of 48 h preceding autopsy and had free access to normal chow diet and water for the first 24 h initially for of acclimatization and then during the next 24 h, animals received only water ad libitum. After twenty-four hours of fasting urine samples were collected in fresh containers, centrifuged at 2000 rpm at room temperature and stored at […] until analyzed. Rats were then euthanized. At autopsy, blood samples were collected by cardiac puncture in tubes. Uteri were carefully excised, gently blotted, weighed, and fixed for histology and histomorphometry. About 5 mm pieces from the middle segment of each uterus were dehydrated in ascending grades of ethanol, cleared in xylene, and embedded in paraffin wax using standard procedures. Photomicrographs of sections were obtained using a Leica DC 300 camera and Leica IM50 Image Acquisition software fitted to a Leica DMLB microscope. Histomorphometric measurements were done using Leica Qwin-Semiautomatic image Analysis software. μCT (both 2-D and 3-D) determination of excised bones was carried out using the Sky Scan 1076 μCT scanner (Aartselaar, Belgium) using the cone-beam reconstruction software version 2.6 based on the Feldkamp algorithm (Skyscan).
Trabecular response to FSE treatment of OVx rats was quantified at the femur epiphysis. […] Efficacy of OVx was confirmed by studying uterine weight. […] OVx group had reduced uterine weight as compared with the ovary intact, sham group. […] E2 increased uterine weight in OVx rats equal to the sham group.

[2] = Oral pharmacokinetics in male Sprague Dawley rats; assay type: in vivo; conditions: rat, serum, 250 mg/kg; for Vd/F: read-out: Vss/F
[3] = tested on: calvarial osteoblasts; assay: Mineralization (Alizarin Red-S) in calvarial osteoblasts; assay type: cell-based; conditions: various concentration, 18 days, compared to untreated cells
Description: FIG. 5A-5C: Activity of the compound C003/K008 isolated from the extract was assessed by measuring ALP activity in calvarial osteoblast cells. At the end of the experiment, ALP activity was measured colorimetrically. […] (*p<0.05, **p<0.01 and ***p<0.001 when compared with control). Calvarial osteoblasts were treated with compound C003/K008 at various concentration for 18 days to induce mineralization. […] Values are expressed as mean±SEM. ***p<0.001 and *p<0.05 when compared with control (untreated cells).
Compound (2492/K008) was isolated from butanolic fraction and alkaline phosphatase activity and mineralization in calvarial osteoblast cells assessed with different concentrations of the test compound or vehicle for 48 hrs in growth medium supplemented with 10 mM β-glycerophosphate and 50 μg/ml ascorbic acid. At the end of incubation period, cells were washed with PBS and kept in −80° C. for 30 min and then at 37° C. for 30 min. ALP activity was measured using p-nitrophenylphosphate (PNPP) as substrate and absorbance was read at 405 nm. SE increased the alkaline phosphatase activity from doses ranging from […] as compared to the control with ˜2.0 fold increase in the ALP activity at 1 μM.

[4] = tested on: drill-hole injury in femur of adult female Sprague Dawley rats; assay: Drill hole model for fracture healing (micro-CT, calcein labeling, qPCR); assay type: in vivo; conditions: 30 μg/kg s.c. injection
Description: Drill-hole injury was created in the mid femur region 1 cm above the knee joint by inserting a drill hole of diameter 0.8 mm in the anterior portion of the diaphysis of the bilateral femurs. Treatment was started next day of injury and continued for 14 days. Each animal received intraperitoneal administration of fluorochrome calcein(20 mg/kg) 24 h before autopsy. After 14 days of treatment, animals were sacrificed and autopsied to collect their femurs for the measurement of bone micro-architectural parameters. Bones were embedded inacrylic material and […] sections were made using an Isomet BoneCutter (Buehler, Lake Bluff, Ill., USA) and photographs taken under confocal microscope LSM 510 Meta, Carl Zeiss, Maple Grove, Minn., USA) aided with appropriate filters. The intensity of calcein binding, was calculated using Carl Zeiss AM 4.2 image-analysis software.
(A) In vivo regeneration of bone to monitor local repair process was done using micro-CT after creation of the hole using on femur of 0.8 mm diameter. […] Modest mineralized calluses appeared at defect and intra-medulla region of treated groups. By day 14, extent of callus mineralization increased, in the intra-medulla region.
The model was made as described above and then treatment of extract and Formulated Spinacea Extraxt (FSE) was started at doses of 250 and 750 mg·kg^−1·day^−1 from the next day of injury and continued for 14 days. After 14 days of treatment as described above, animals were sacrificed and autopsied to collect their femurs for the measurement of bonemicro architectural parameters at the drill-hole site. Bones were embedded inacrylic material and […] sections were made using an Isomet BoneCutter (Buehler, Lake Bluff, Ill., USA) and photographs taken under confocal microscope LSM 510 Meta, Carl Zeiss, Maple Grove, Minn., USA) aided with appropriate filters. The intensity of calcein binding, which is an indicator of the amount of new mineral deposition, was calculated using Carl Zeiss AM 4.2 image-analysis software. […]

C[C@]12CC[C@@H]3c4ccc(O)cc4CC[C@H]3[C@@H]1CC[C@@H]2O [Compound E2]
Uteriewt ([1]; Ovx + E2 (0.1 mgkg^−1day^−1)): 329.63 ± 30.44 mg
BV/TV ([1]; Ovx + E2 (0.1 mgkg^−1day^−1)): 15.97 ± 1.88 %
Po (tot) (Total porosity percent) ([1]; Ovx + E2 (0.1 mgkg^−1day^−1)): 85.24 ± 2.07%
SMI ([1]; Ovx + E2 (0.1 mgkg^−1day^−1)): 1.67 ± 0.04
Tb.No ([1]; Ovx + E2 (0.1 mgkg^−1day^−1)): 1.61 ± 0.23** mm^−1
Tb.Pf (Trabecular pattern factor) ([1]; Ovx + E2 (0.1 mgkg^−1day^−1)): 6.22 ± 0.72
Tb.Sp ([1]; Ovx + E2 (0.1 mgkg^−1day^−1)): 0.76 ± 0.1 mm

COc1c(-c2ccc(O)c(O)c2)oc2cc3c(c(O)c2c1=O)OCO3 [Compound K007, 5,3′,4′-trihydroxy-3-methoxy-6,7-methylenedioxy-flavone]
AUC(0-t) [2]: 39 ng·h/mL
CL/F [2]: 213 mL/min/kg
Cmax [2]: 7.6 ng/mL
MRT [2]: 3.4 h
Tmax [2]: 2 h
Vd/F [2]: 43.3 L/kg

COc1c(O)cc2oc(-c3ccc(O)c(O)c3)c(OC)c(=O)c2c1O [Compound K008, 5,7,3′,4′-tetrahydroxy-3,6-dimethoxy-flavone]
formation of mineralized nodules (Alizarin Red-S) [3]: increased formation of mineralized nodules
AUC(0-t) [2]: 23.3 ng·h/mL
CL/F [2]: 23.3 mL/min/kg
Cmax [2]: 5 ng/mL
MRT [2]: 3.9 h
Tmax [2]: 2 h
Vd/F [2]: 5.6 L/kg

PTH: parathyroid hormone, standard marketed anabolic drug, injectable
BV/TV [4]: 60.3 ± 1.91 %
Calcein intensity [4]: 15.3 ± .055 %
SMI (Index) [4]: 0.65 ± 0.07
Uteriewt ([1]; Ovx + PTH (30 μg/kg bw)): 91.18 ± 3.84 mg
BV/TV ([1]; Ovx + PTH (30 μg/kg bw)): 22.78 ± 1.76 %
Po (tot) (Total porosity percent) ([1]; Ovx + PTH (30 μg/kg bw)): 76.79 ± 2.35 %
SMI ([1]; Ovx + PTH (30 μg/kg bw)): 1.26 ± 0.18
Tb.No ([1]; Ovx + PTH (30 μg/kg bw)): 2.43 ± 0.19*** mm^−1
Tb.Pf (Trabecular pattern factor) ([1]; Ovx + PTH (30 μg/kg bw)): 5.31 ± 0.68
Tb.Sp ([1]; Ovx + PTH (30 μg/kg bw)): 0.63 ± 0.07 mm
